Active and inactive are the calls of the source. The rule behind the calls is not given here.

Test [1] concerns the target Heat shock cognate 71 kDa protein (Mus musculus) (UniProt P63017). As to the kind of experiment: Binding affinity to HSP73 in mouse B16-F10 cell lysate by Western blot analysis. Type of test: subcellular. A general note: A western blot detects proteins with antibodies after separation by electrophoresis.
Test [2] deals with T1, Interstitial collagenase (Homo sapiens) (UniProt P03956).
T1 sequence (whole entry): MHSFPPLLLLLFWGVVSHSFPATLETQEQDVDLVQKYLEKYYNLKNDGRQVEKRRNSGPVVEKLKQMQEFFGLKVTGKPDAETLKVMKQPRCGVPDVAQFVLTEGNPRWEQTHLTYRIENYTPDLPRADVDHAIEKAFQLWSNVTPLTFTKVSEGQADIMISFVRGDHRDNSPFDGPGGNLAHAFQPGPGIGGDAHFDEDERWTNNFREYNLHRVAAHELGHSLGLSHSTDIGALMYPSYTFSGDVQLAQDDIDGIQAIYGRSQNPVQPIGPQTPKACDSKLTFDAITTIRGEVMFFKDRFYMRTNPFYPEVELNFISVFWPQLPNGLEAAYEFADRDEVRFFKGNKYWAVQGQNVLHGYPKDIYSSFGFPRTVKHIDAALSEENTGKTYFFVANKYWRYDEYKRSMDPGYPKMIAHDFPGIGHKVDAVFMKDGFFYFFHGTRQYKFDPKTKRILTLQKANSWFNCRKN
As to the kind of experiment: Inhibition of MMP-1 (unknown origin) using FRET substrate preincubated for 5 mins followed by substrate addition and measured after 30 mins by fluorescence assay. The note with it: dose 25-100 µM, time 35.0 min, DDE = dose-dependent effect.

For test [3], the target named is Actin, cytoplasmic 1 (Mus musculus) (UniProt P60710). As to the kind of experiment: Binding affinity to beta-actin in mouse B16-F10 cell lysate by Western blot analysis. Type of test: subcellular.
In test [4] the target is Heat shock cognate 71 kDa protein (Mus musculus) (UniProt P63017). As to the kind of experiment: Binding affinity to HSP73 in mouse B16-F10 cell lysate by pull down assay. Type of test: subcellular.
For test [5], the system named is B16-F10. As to the kind of experiment: Binding affinity to MMP-1 in mouse B16-F10 cell lysate by pull down assay. Type of test: subcellular.
The target in test [6] is T1, Interstitial collagenase (Homo sapiens). As to the kind of experiment: Binding affinity to human 15N-labelled MMP-1 catalytic domain (100 to 269 residues) expressed in Escherichia coli BL21 Star (DE3) assessed as chemical shift perturbation at E99 residue at 500 uM by 1H-15N HSQC spectra analysis.
Test [7] has the same target. As to the kind of experiment: Binding affinity to human 15N-labelled MMP-1 catalytic domain (100 to 269 residues) expressed in Escherichia coli BL21 Star (DE3) assessed as chemical shift perturbation at F97 residue at 500 uM by 1H-15N HSQC spectra analysis.
For test [8], the target named is Mitogen-activated protein kinase kinase kinase 11 (Mus musculus) (UniProt Q80XI6). As to the kind of experiment: Binding affinity to MLK3 in mouse B16-F10 cell lysate by pull down assay. Type of test: subcellular.
The subject of test [9] is B16-F10. As to the kind of experiment: Binding affinity to MMP-1 in mouse B16-F10 cell lysate by Western blot analysis. The format is subcellular.
Test [10] deals with Actin, cytoplasmic 1 (Mus musculus) (UniProt P60710). As to the kind of experiment: Binding affinity to beta-actin in mouse B16-F10 cell lysate by pull down assay. The format is subcellular.
The target in a further test is T2, Interstitial collagenase (Homo sapiens, UniProt P03956).
T2 sequence (P03956 whole entry): T1 sequence (whole entry)
As to the kind of experiment: (§1) Binding affinity to human MMP-1 catalytic domain (100 to 269 residues) expressed in Escherichia coli BL21 Star (DE3) by SPR analysis. On the technique in general: SPR reads the build-up and loss of mass on a sensor chip optically.

Test [11] concerns the target T1, Interstitial collagenase (Homo sapiens). The test is described as §1. Conditions: DDE = dose-dependent effect.

Heat shock cognate 71 kDa protein (Mus musculus), sequence (P63017 whole entry): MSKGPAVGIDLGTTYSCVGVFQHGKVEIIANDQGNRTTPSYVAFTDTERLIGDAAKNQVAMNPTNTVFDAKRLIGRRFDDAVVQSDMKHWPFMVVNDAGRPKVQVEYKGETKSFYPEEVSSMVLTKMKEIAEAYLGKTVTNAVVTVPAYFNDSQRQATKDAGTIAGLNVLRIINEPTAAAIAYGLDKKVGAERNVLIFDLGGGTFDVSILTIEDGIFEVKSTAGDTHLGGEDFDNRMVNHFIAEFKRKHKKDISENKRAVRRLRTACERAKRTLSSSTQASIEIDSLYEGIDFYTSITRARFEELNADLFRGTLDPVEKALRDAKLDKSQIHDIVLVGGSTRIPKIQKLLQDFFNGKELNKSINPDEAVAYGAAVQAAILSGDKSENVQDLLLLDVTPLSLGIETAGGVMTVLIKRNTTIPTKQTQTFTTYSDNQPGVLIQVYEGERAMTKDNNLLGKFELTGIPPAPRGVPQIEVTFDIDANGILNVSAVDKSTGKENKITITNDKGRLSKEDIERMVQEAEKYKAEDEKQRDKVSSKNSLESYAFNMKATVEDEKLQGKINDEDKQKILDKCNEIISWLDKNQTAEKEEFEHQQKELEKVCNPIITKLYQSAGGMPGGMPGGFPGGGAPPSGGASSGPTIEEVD
Mitogen-activated protein kinase kinase kinase 11 (Mus musculus), sequence (Q80XI6 whole entry, looked up): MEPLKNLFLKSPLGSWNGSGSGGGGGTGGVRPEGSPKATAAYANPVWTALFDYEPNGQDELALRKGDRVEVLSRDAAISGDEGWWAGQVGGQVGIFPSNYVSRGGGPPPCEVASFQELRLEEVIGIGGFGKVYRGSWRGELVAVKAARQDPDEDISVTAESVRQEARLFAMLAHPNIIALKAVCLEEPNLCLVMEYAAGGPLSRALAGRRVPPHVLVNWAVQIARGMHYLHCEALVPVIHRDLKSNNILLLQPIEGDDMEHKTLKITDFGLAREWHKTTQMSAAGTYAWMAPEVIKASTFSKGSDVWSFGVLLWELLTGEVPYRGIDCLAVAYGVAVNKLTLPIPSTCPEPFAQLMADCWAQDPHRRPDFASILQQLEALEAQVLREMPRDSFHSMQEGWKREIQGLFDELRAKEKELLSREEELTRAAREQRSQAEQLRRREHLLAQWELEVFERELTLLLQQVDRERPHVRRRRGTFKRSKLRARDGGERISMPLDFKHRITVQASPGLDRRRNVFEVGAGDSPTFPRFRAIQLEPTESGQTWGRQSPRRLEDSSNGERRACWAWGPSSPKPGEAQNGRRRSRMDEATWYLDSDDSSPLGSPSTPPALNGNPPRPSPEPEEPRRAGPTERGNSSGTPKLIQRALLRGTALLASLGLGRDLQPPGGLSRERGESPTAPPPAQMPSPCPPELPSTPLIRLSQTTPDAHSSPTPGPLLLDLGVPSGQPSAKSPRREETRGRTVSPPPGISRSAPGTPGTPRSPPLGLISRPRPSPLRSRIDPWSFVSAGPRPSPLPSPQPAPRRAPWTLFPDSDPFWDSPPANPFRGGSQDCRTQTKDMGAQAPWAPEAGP

For orientation: Kd means the free concentration of one partner at which half of the binding sites on the other are occupied at equilibrium, for simple one-to-one binding. Read a low Kd as a tighter complex. Regarding `COc1c(-c2ccc(O)c(O)c2)oc2cc(O)cc(O)c2c1=O` [3-O-METHYLQUERCETIN], the outcome (in test [1]; in [3]; in [4]; with B16-F10 [5]; in [8]; in the test with B16-F10 [9]) was Active. Further, the result in [10] was Active. The inhibition result in [2] is “Dde”. The Activity in test [6] is above 0.03 ppm; in test [7], 0.05 ppm; in test [11] it was “Dde”. This compound also yielded a Kd at Interstitial collagenase of 21.7 µM.
In the case of `O=c1c(O)c(-c2ccc(O)c(O)c2)oc2cc(O)cc(O)c12`, the inhibition result in test [2] was “Dde”. Besides, the Activity result in test [11] was “Dde”.

The values above are taken from ChEMBL document CHEMBL5126590 (Bioorg Med Chem, 2022).
